From ChEMBL document CHEMBL3885881, “DrugMatrix”

Species on record: Rattus norvegicus
Experiment: DrugMatrix - Regimen: Daily Repeat
Assay type: toxicity, organism-based, Sprague-Dawley
Set-up: regimen Daily Repeat, gender Male, age 6-8 weeks
Conditions: in vivo, sc, […], route mini-PUMP - SUBCUTANEOUS, dose 4.2 mg/Kg, vehicle 100 % SALINE; for ABSOLUTE EOSINOPHIL / ABSOLUTE LYMPHOCYTE / ABSOLUTE MONOCYTE / ABSOLUTE SEGMENTED NEUTROPHIL / BASOPHIL / EOSINOPHIL / ERYTHROCYTE COUNT / HEMATOCRIT / HEMOGLOBIN / LEUKOCYTE COUNT / LYMPHOCYTE / MEAN CORPUSCULAR HEMOGLOBIN / MEAN CORPUSCULAR HEMOGLOBIN CONCENTRATION / MEAN CORPUSCULAR VOLUME / MONOCYTE / NEUTROPHIL / NUCLEATED RED BLOOD CELLS / PLATELET COUNT / ABSOLUTE BASOPHIL: tissue Blood; for ALANINE AMINOTRANSFERASE / ALBUMIN / ALKALINE PHOSPHATASE / ASPARTATE AMINOTRANSFERASE / BLOOD UREA NITROGEN / CARBON DIOXIDE / CHLORIDE / CHOLESTEROL / CREATININE / GLUCOSE / LACTATE DEHYDROGENASE / LIPASE / PHOSPHORUS / POTASSIUM / SODIUM / TOTAL BILIRUBIN / TOTAL PROTEIN / URIC ACID: tissue Plasma
[1] = 72 h, dose level M1, time 3 day
[2] = 120 h, dose level M1, time 5 day

CC(C)NCC(O)c1ccc(O)c(O)c1 (stereo not given) [ISOPROTERENOL]
ABSOLUTE EOSINOPHIL [1]: 46 CELLS/uL | ABSOLUTE LYMPHOCYTE [1]: 13359 CELLS/uL | ABSOLUTE MONOCYTE [1]: 389.67 CELLS/uL | ABSOLUTE SEGMENTED NEUTROPHIL [1]: 972 CELLS/uL | BASOPHIL [1]: 0% | EOSINOPHIL [1]: 0.33% | ERYTHROCYTE COUNT [1]: 5.5 x10E6/uL | HEMATOCRIT [1]: 32.97% | HEMOGLOBIN [1]: 12.13 G/DL | LEUKOCYTE COUNT [1]: 14.77 x10E3/uL | LYMPHOCYTE [1]: 90.33% | MEAN CORPUSCULAR HEMOGLOBIN [1]: 22.1 pg | MEAN CORPUSCULAR HEMOGLOBIN CONCENTRATION [1]: 36.8 G/DL | MEAN CORPUSCULAR VOLUME [1]: 60.03 fL | MONOCYTE [1]: 2.67% | NEUTROPHIL [1]: 6.67% | NUCLEATED RED BLOOD CELLS [1]: 0.33 /100WBC | PLATELET COUNT [1]: 1142.67 x10E3/uL | ALANINE AMINOTRANSFERASE [1]: 50.67 u/L | ALBUMIN [1]: 3.93 G/DL | ALKALINE PHOSPHATASE [1]: 337 u/L | ASPARTATE AMINOTRANSFERASE [1]: 73.67 u/L | BLOOD UREA NITROGEN [1]: 13.33 mg/dL | CARBON DIOXIDE [1]: 25.33 mmol/L | CHLORIDE [1]: 103.67 MEQ/L | CHOLESTEROL [1]: 77.33 mg/dL | CREATININE [1]: 0.18 mg/dL | GLUCOSE [1]: 140.33 mg/dL | LACTATE DEHYDROGENASE [1]: 151 u/L | LIPASE [1]: 9 u/L | PHOSPHORUS [1]: 10.17 mg/dL | POTASSIUM [1]: 7.09 MEQ/L | SODIUM [1]: 146.4 MEQ/L | TOTAL BILIRUBIN [1]: 0.2 mg/dL | TOTAL PROTEIN [1]: 5.9 G/DL | URIC ACID [1]: 2.33 mg/dL | ABSOLUTE BASOPHIL [2]: 0 CELLS/uL | ABSOLUTE EOSINOPHIL [2]: 84 CELLS/uL | ABSOLUTE LYMPHOCYTE [2]: 11630 CELLS/uL | ABSOLUTE MONOCYTE [2]: 485 CELLS/uL | ABSOLUTE SEGMENTED NEUTROPHIL [2]: 2701 CELLS/uL | BASOPHIL [2]: 0% | EOSINOPHIL [2]: 0.5% | ERYTHROCYTE COUNT [2]: 5.61 x10E6/uL | HEMATOCRIT [2]: 34.6% | HEMOGLOBIN [2]: 12.85 G/DL | LEUKOCYTE COUNT [2]: 14.9 x10E3/uL | LYMPHOCYTE [2]: 78.5% | MEAN CORPUSCULAR HEMOGLOBIN [2]: 22.95 pg | MEAN CORPUSCULAR HEMOGLOBIN CONCENTRATION [2]: 37.15 G/DL | MEAN CORPUSCULAR VOLUME [2]: 61.75 fL | MONOCYTE [2]: 3% | NEUTROPHIL [2]: 18% | NUCLEATED RED BLOOD CELLS [2]: 0.5 /100WBC | PLATELET COUNT [2]: 1202 x10E3/uL | ALANINE AMINOTRANSFERASE [2]: 57 u/L | ALBUMIN [2]: 4.05 G/DL | ALKALINE PHOSPHATASE [2]: 244.5 u/L | ASPARTATE AMINOTRANSFERASE [2]: 74 u/L | BLOOD UREA NITROGEN [2]: 11.5 mg/dL | CARBON DIOXIDE [2]: 27 mmol/L | CHLORIDE [2]: 104.5 MEQ/L | CHOLESTEROL [2]: 70 mg/dL | CREATININE [2]: 0.15 mg/dL | GLUCOSE [2]: 152 mg/dL | LACTATE DEHYDROGENASE [2]: 156 u/L | LIPASE [2]: 8.5 u/L | PHOSPHORUS [2]: 13.1 mg/dL | POTASSIUM [2]: 6.73 MEQ/L | SODIUM [2]: 149.4 MEQ/L | TOTAL BILIRUBIN [2]: 0.15 mg/dL | TOTAL PROTEIN [2]: 5.9 G/DL | URIC ACID [2]: 2.25 mg/dL | ABSOLUTE BASOPHIL (dose level M1, time 14 day): 0 CELLS/uL | ABSOLUTE EOSINOPHIL (dose level M1, time 14 day): 0 CELLS/uL | ABSOLUTE LYMPHOCYTE (dose level M1, time 14 day): 12693.75 CELLS/uL | ABSOLUTE MONOCYTE (dose level M1, time 14 day): 445.5 CELLS/uL | ABSOLUTE SEGMENTED NEUTROPHIL (dose level M1, time 14 day): 2010.75 CELLS/uL | BASOPHIL (dose level M1, time 14 day): 0% | EOSINOPHIL (dose level M1, time 14 day): 0% | ERYTHROCYTE COUNT (dose level M1, time 14 day): 5.78 x10E6/uL | HEMATOCRIT (dose level M1, time 14 day): 35.65% | HEMOGLOBIN (dose level M1, time 14 day): 12.93 G/DL | LEUKOCYTE COUNT (dose level M1, time 14 day): 15.15 x10E3/uL | LYMPHOCYTE (dose level M1, time 14 day): 83.25% | MEAN CORPUSCULAR HEMOGLOBIN (dose level M1, time 14 day): 22.38 pg | MEAN CORPUSCULAR HEMOGLOBIN CONCENTRATION (dose level M1, time 14 day): 36.27 G/DL | MEAN CORPUSCULAR VOLUME (dose level M1, time 14 day): 61.73 fL | MONOCYTE (dose level M1, time 14 day): 3.25% | NEUTROPHIL (dose level M1, time 14 day): 13.5% | NUCLEATED RED BLOOD CELLS (dose level M1, time 14 day): 0 /100WBC | PLATELET COUNT (dose level M1, time 14 day): 856.5 x10E3/uL | ALANINE AMINOTRANSFERASE (dose level M1, time 14 day): 62.75 u/L | ALBUMIN (dose level M1, time 14 day): 4.12 G/DL | ALKALINE PHOSPHATASE (dose level M1, time 14 day): 336 u/L | ASPARTATE AMINOTRANSFERASE (dose level M1, time 14 day): 83.25 u/L | BLOOD UREA NITROGEN (dose level M1, time 14 day): 16.5 mg/dL | CARBON DIOXIDE (dose level M1, time 14 day): 32 mmol/L | CHLORIDE (dose level M1, time 14 day): 100.75 MEQ/L | CHOLESTEROL (dose level M1, time 14 day): 75.75 mg/dL | CREATININE (dose level M1, time 14 day): 0.21 mg/dL | GLUCOSE (dose level M1, time 14 day): 144 mg/dL | LACTATE DEHYDROGENASE (dose level M1, time 14 day): 122.25 u/L | LIPASE (dose level M1, time 14 day): 8.75 u/L | PHOSPHORUS (dose level M1, time 14 day): 13.35 mg/dL | POTASSIUM (dose level M1, time 14 day): 7.05 MEQ/L | SODIUM (dose level M1, time 14 day): 145.78 MEQ/L | TOTAL BILIRUBIN (dose level M1, time 14 day): 0.1 mg/dL | TOTAL PROTEIN (dose level M1, time 14 day): 6.1 G/DL | URIC ACID (dose level M1, time 14 day): 1.88 mg/dL
